Results: US6329163A, “Assays for detecting β-secretase inhibition” (Elan Pharmaceuticals, Inc., priority 1998, dated 2001)

B1: peanut (PNA): lectin (protein, UniProt P02872 24-273, looked up)
Galactose-binding lectin: AETVSFNFNSFSEGNPAINFQGDVTVLSNGNIQLTNLNKVNSVGRVLYAMPVRIWSSATGNVASFLTSFSFEMKDIKDYDPADGIIFFIAPEDTQIPAGSIGGGTLGVSDTKGAGHFVGVEFDTYSNSEYNDPPTDHVGIDVNSVDSVKTVPWNSVSGAVVKVTVIYDSSTKTLSVAVTNDNGDITTIAQVVDLKAKLPERVKFGFSASGSLGGRQIHLIRSWSFTSTLITTTRRSIDNNEKKIMNMASA

Assays:
β-secretase [1] = biological target: T1, β-secretase (Homo sapiens, UniProt P56817); assay: β-secretase assay in the presence of common protease inhibitors (MBP-C125 cleavage, SW-192 ELISA); type: biochemical; settings: for IC50: Max Conc not given
T1 construct: purified from a natural source, such as human brain tissue or human 293 cells; endogenous in cells

APP = assay: Proteolytic activity of β-secretase as a function of pH; type: biochemical, human
β-secretase [2] = biological target: T1, β-secretase; assay: Binding of substantially purified β-secretase activity to immobilized lectins; settings: immobilized lectin; Table 2
Procedure: Glycosylation of β-secretase has been investigated using various immobilized lectins, and ability of substantially purified β-secretase activity to bind to them was determined. […] A "-" sign signifies less than 20% binding, "+" between […] binding, "++" between 50-75% binding, and "+++" >75% binding.

T1 sequence (P56817 46-501): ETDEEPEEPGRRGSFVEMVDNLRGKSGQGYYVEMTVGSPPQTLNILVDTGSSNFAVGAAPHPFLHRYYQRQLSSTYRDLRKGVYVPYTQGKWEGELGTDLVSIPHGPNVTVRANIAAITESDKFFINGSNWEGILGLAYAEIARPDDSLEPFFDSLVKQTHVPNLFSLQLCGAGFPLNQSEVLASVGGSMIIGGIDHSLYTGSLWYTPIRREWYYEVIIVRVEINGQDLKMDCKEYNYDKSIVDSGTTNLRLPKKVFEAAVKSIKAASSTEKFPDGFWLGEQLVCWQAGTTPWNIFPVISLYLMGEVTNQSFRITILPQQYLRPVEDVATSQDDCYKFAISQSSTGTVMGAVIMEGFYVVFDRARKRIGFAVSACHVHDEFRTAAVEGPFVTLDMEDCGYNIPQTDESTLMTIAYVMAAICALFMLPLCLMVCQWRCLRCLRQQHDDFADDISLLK

Molecule	IC50 (β-secretase [1]; pH 5.5)	inhibition of β-secretase activity (in words) (β-secretase [1])	other results
CCCCC(NC(=O)C=[N+]=[N-])C(=O)OC (stereo not drawn) [diazoacetylnorleucylmethyl ester]	> 5 mM	–	–
c1cnc2c(c1)ccc1cccnc12 [o-phenanthroline]	7 mM	inhibits poorly	–
β-secretase: enzyme which cleaves APP at the amino-terminus of β-amyloid peptide, purified from human 293 cells or human brain	–	–	pH of peak proteolytic activity (APP): 5 to 5.5; proteolytic activity (APP; pH 7.5 and above): very low activity
O=c1oc(Cl)c(Cl)c2ccccc12 [3,4-dichloroisocoumarin]	–	–	inhibition at 500 µM (β-secretase [1]; Max Conc 0.5 mM, pH 5.5): < 25%
c1cnc2c(c1)ccc1ncccc12 [m-phenanthroline]	7 mM	also does so	–
B1	–	–	β-Secretase Binding (β-secretase [2]): + (between 24-40% binding)
